Test results as given in ChEMBL document CHEMBL1132325, “4-Heterocyclohexanone-based inhibitors of the serine protease plasmin” (J Med Chem, 1999).

Tests used:
[1] = molecular target: T1, Plasminogen (Homo sapiens, UniProt P00747); assay: (§1) Compound was evaluated for its binding affinity against plasmin
[2] = molecular target: T1, Plasminogen; assay: as §1; remark: listed apart in the source
[3] = molecular target: Serine protease 1 (Homo sapiens, UniProt P07477); assay: Compound was evaluated for its binding affinity against trypsin
[4] = molecular target: Kallikrein-1 (Homo sapiens, UniProt P06870); assay: Compound was evaluated for its binding affinity against kallikrein
[5] = molecular target: Prothrombin (Homo sapiens, UniProt P00734); assay: Compound was evaluated for its binding affinity against thrombin

T1 sequence (P00747 97-580 limits assumed): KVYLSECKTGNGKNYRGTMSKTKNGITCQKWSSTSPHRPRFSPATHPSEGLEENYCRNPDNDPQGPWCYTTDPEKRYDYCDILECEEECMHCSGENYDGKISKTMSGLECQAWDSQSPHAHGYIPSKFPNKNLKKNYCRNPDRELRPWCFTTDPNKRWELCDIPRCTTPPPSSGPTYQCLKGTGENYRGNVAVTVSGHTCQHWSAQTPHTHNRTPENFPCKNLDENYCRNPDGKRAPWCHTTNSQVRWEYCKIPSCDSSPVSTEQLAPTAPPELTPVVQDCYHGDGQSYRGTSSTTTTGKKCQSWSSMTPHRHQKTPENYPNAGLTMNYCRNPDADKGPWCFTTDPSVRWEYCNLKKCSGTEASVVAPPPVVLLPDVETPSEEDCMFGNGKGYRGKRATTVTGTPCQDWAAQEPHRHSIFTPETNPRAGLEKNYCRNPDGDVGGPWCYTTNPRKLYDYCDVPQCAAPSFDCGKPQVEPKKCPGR
T1 sequence (P00747 581-810 limits assumed): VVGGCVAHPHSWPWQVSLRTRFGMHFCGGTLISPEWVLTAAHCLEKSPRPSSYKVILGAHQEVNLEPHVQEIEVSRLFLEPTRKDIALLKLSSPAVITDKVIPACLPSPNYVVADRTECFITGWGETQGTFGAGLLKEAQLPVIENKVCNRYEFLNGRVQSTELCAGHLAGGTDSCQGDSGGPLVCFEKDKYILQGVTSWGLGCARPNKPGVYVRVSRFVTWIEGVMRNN
Chain of Serine protease 1 (P07477 whole entry): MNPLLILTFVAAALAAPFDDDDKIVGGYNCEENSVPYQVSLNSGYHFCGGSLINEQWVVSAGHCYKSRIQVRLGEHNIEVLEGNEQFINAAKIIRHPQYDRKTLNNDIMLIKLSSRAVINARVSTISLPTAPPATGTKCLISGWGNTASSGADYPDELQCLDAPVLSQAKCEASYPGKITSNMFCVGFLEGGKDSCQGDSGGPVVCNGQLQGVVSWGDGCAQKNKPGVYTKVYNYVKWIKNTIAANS
Chain of Kallikrein-1 (P06870 whole entry): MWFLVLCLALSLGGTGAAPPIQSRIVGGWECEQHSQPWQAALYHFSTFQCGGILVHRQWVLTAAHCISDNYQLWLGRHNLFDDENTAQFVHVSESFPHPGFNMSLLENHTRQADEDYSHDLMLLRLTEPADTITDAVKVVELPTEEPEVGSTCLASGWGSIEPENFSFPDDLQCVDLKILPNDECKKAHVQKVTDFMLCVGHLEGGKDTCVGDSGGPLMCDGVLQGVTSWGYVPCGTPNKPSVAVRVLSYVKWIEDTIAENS

Compound	Ki [1]	Ki [2]	Ki [3]	Ki [4]	Ki [5]
CCC(C)[C@@H](N)C(=O)N[C@@H](Cc1ccccc1)C(=O)N(CCCCCCN)C1CCCCC1 (some centres not stated)	520 µM				
CC[C@@H](C)[C@@H](N)C(=O)N[C@@H](Cc1ccccc1)C(=O)N(CCCCCCN)C1CSCCC1=O (some centres not stated)	130 µM	50 µM	1700 µM		
NCCCCCCN(CCCCCCN)C1CSCCC1=O (configuration not stated)		400 µM	1400 µM	> 10000 µM	> 10000 µM

Next, values leading:

Ki [1]	Ki [2]	Ki [3]	Ki [4]	Ki [5]	Compound
			630 µM	720 µM	CC[C@H](C)[C@@H](N)C(=O)N[C@@H](Cc1ccccc1)C(=O)N(CCCCCCN)C1CSCCC1=O (some centres not stated)
16000 µM					CC[C@@H](C)[C@@H](N)C(=O)N[C@@H](Cc1ccccc1)C(=O)NC1CSCCC1=O (stereo in doubt; form 1)
9000 µM					CC[C@@H](C)[C@@H](N)C(=O)N[C@@H](Cc1ccccc1)C(=O)NC1CSCCC1=O (stereo in doubt; form 2)
